Measured values published in publication PMC9148403, “1,3,5-triazines inhibit osteosarcoma and avert lung metastasis in a patient-derived orthotopic xenograft mouse model with favorable pharmacokinetics” (Iranian Journal of Basic Medical Sciences, 2022).
pIC50: −log10 of the molar value.

How the values were obtained:
Saos-2 cells [1] = assay: Cell cycle analysis by flow cytometry; assay type: cell-based, human; settings: Saos-2 cells, 10, 20 and 30 µM
Protocol: The effect of compound 8a (0, 10, 20, and 30 µM) was investigated on the cell cycle of Saos-2 cells as per our earlier reported procedure using a FACSCalibur flow cytometer with CellQuest V.3.3 software (BD Biosciences, USA) ([38]).

PI3K = PI3K luminescent kinase assay (Promega); assay type: biochemical; settings: read-out: Kinase inhibition IC50 PI3K
Description: (§1) PI3K and mTOR kinase inhibition assay
(§2) The inhibitory activity of developed molecules against PI3K and mTOR was identified using luminescent kinase assay, and Lance Ultra assay from Promega, USA, respectively as per our earlier reported procedure ([38]).

[2] = system: patient-derived osteosarcoma; assay: Osteosarcoma patient-derived orthotopic xenograft (PDOX) mouse model; assay type: in vivo, Athymic nu/nu nude mice
Protocol: Surgical orthotopic implantation (SOI) for the establishment of the osteosarcoma PDOX model
The PDOX model in Athymic nu/nu nude mice was established according to our earlier reported procedure ([38]). The tumor tissue for implantation was obtained from a OS patient with written informed consent.
The mice were arbitrarily categorized into four dissimilar groups (n=6), and the treatment schedule lasted for 14 days as follows. The compound 8a was dissolved in the solution of PEG400/Tween 80/Saline solution at 10/10/80 % in volume, respectively prior to intraperitoneal administration.
Groups 2, 3, and 4 received compound 8a (2, 5, and 10 mg/kg, respectively, IP, daily)
The control animals received the vehicle only.
The length and width of the tumor along with the bodyweight of mice were recorded.
The tumor volume was calculated with the following formula:
Tumor volume (mm^3)= length (mm) × width (mm) × […])⁄2
Examination of lung histopathology
At the end of the experiment, the lung tissues were harvested and fixed in formalin (10%). The tissues were further entrenched in paraffin, sectioned using a microtome into 5-μm thickness. The resulting sections were dyed using hematoxylin-eosin (HE).

K562 = assay: Cellular antiproliferation assay (CCK-8), K562; assay type: cell-based, human; settings: K562 cells, read-out: Cell growth inhibition IC50 K562
Saos-2 = assay: Cellular antiproliferation assay (CCK-8), Saos-2; assay type: cell-based, human; settings: Saos-2 cells, read-out: Cell growth inhibition IC50 Saos-2
Protocol: The human osteosarcoma cancer cell lines MG-63, U2-OS, and Saos-2 were purchased from CBSIBCB of the Chinese Academy of Sciences (Shanghai, China)
Cellular antiproliferation assay using cell counting kit (CCK-8)
The CCK-8 assay was used in the current study to analyze the effect of compounds on cellular proliferation. The transfected cells were seeded in a 96-well plate, and to this CCK-8 (20 µl) was added. The enzyme microplate reader at 450 nm was used to record the absorbance. The inhibitory effect on cellular proliferation was obtained as per the given formula: Inhibitory activity (%) = (1 - Atest/Acontrol) × 100 %.

Saos-2 cells [3] = assay: Flow cytometric apoptosis assay (Annexin V/PI); assay type: cell-based, human; settings: Saos-2 cells, 10, 20 and 30 µM
Protocol: Flow cytometric apoptosis assay
The effect of compound 8a (0, 10, 20, and 30 µM) on apoptosis was investigated on Saos-2 cells as per our earlier reported procedure using a FACSCalibur flow cytometer with CellQuest V.3.3 software (BD Biosciences, USA) ([38]).

mTOR = mTOR (Homo sapiens, UniProt P42345); assay: mTOR Lance Ultra kinase assay; assay type: biochemical; settings: read-out: Kinase inhibition IC50 mTOR
Description: as §1, §2

[4] = Pharmacokinetic assessment in SD rats; assay type: in vivo; settings: for AUC 0- INF / C max / T max / T ½: rat, in vivo
Protocol: Pharmacokinetic assessment
The compound 8a was administered to female SD rats in a single dose of 1 and 5 mg/kg using intra-venomous and per-oral route in the vehicle. The blood samples from the rats were collected in a timely manner starting from 2 min to 24 hr. The serum was extracted from the blood-aliquots for the estimation of various pharmacokinetic parameters (T1/2, Tmax, Cmax, AUC0-INF) developed using WinNonlin software using LC-MS/MS (Applied Biosystem, USA).

KU812 = assay: Cellular antiproliferation assay (CCK-8), KU812; assay type: cell-based, human; settings: KU812 cells, read-out: Cell growth inhibition IC50 KU812

Cc1nc(NC(=O)c2ccc(CN3CCN(c4ccc(Cl)cc4)CC3)cc2)nc(Nc2nccc(-c3nccs3)n2)n1 [Compound 8a]
Effect on cell cycle of Saos-2 cells (Saos-2 cells [1]): G2/M phase arrest | pIC50 (PI3K): 6.10 | Effect on lung metastasis (lung histopathology) ([2]; PDOX mice, 2 mg/kg IP daily, 14 days): does not have a significant effect | Effect on lung metastasis (lung histopathology) ([2]; PDOX mice, 5 mg/kg IP daily, 14 days): less necrotic lesions and minimum interstitial hemorrhages | Effect on lung metastasis (lung architecture, histopathology) ([2]; PDOX mice, 10 mg/kg IP daily, 14 days): significantly restored close to normal | Body weight of mice ([2]; PDOX mice, 2, 5 and 10 mg/kg IP daily, 14 days, vs control): improvement in body weight | Tumor volume ([2]; PDOX mice, 2, 5 and 10 mg/kg IP daily, at the end of the study): significantly reduced | pIC50 (K562): 6.21 | pIC50 (Saos-2): 6.68 | Effect on apoptosis of Saos-2 cells (Saos-2 cells [3]): dose-dependently increases apoptosis | pIC50 (mTOR): 6.46 | Tolerability in the pharmacokinetic study ([4]; SD rats, 1 mg/kg IV and 5 mg/kg PO single dose): well-tolerated | AUC 0- INF ([4]; iv, 1 mg/kg): 61.201 µg·h/mL | C max ([4]; iv, 1 mg/kg): 8126 ng/mL | T max ([4]; iv, 1 mg/kg): 0.13 h | T ½ ([4]; iv, 1 mg/kg): 0.75 h | AUC 0- INF ([4]; po, 5 mg/kg): 297.326 µg·h/mL | C max ([4]; po, 5 mg/kg): 410 ng/mL | T max ([4]; po, 5 mg/kg): 2.67 h | T ½ ([4]; po, 5 mg/kg): 3.5 h | pIC50 (KU812): 6.14

Cc1nc(NC(=O)c2ccc(CN3CCN(c4ccc(Br)cc4)CC3)cc2)nc(Nc2nccc(-c3nccs3)n2)n1 [Compound 8b]
pIC50 (PI3K): 6.05 | pIC50 (K562): 6.14 | pIC50 (Saos-2): 6.57 | pIC50 (mTOR): 6.41 | pIC50 (KU812): 6.08

Cc1ccc(N2CCN(Cc3ccc(C(=O)Nc4nc(C)nc(Nc5nccc(-c6nccs6)n5)n4)cc3)CC2)cc1 [Compound 8c]
pIC50 (PI3K): 6.01 | pIC50 (K562): 6.05 | pIC50 (Saos-2): 6.28 | pIC50 (mTOR): 6.31 | pIC50 (KU812): 5.99

Cc1nc(NC(=O)c2ccc(CN3CCN(c4ccc([N+](=O)[O-])cc4)CC3)cc2)nc(Nc2nccc(-c3nccs3)n2)n1 [Compound 8d]
pIC50 (PI3K): 6.04 | pIC50 (K562): 6.09 | pIC50 (Saos-2): 6.47 | pIC50 (mTOR): 6.38 | pIC50 (KU812): 6.02

Cc1nc(NC(=O)c2ccc(CN3CCN(c4ccc(O)cc4)CC3)cc2)nc(Nc2nccc(-c3nccs3)n2)n1 [Compound 8e]
pIC50 (PI3K): 6.01 | pIC50 (K562): 6.05 | pIC50 (Saos-2): 6.32 | pIC50 (mTOR): 6.34 | pIC50 (KU812): 5.94

COc1ccc(N2CCN(Cc3ccc(C(=O)Nc4nc(C)nc(Nc5nccc(-c6nccs6)n5)n4)cc3)CC2)cc1 [Compound 8f]
pIC50 (PI3K): 5.90 | pIC50 (K562): 5.92 | pIC50 (Saos-2): 6.04 | pIC50 (mTOR): 6.08 | pIC50 (KU812): 5.91
